Reference: ChEMBL document CHEMBL1201862, “PubChem BioAssay data set” (2004)
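Compound exposure: 48 hours, 5 concentrations, 96-well plates. GI50 = concentration required for 50% inhibition of growth.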 Activity calls are given as the source filed them. Rule as the data show it: active = GI50 up to about 1.1 µM and inactive = higher.

Experiments:
Assay in all cases: inhibition of tumour cell growth, NCI panel, 48 h
[1] = test system: SNB-19
[2] = test system: U-251
[3] = test system: Malme-3M
[4] = test system: M14
[5] = test system: SW-620
[6] = test system: SF-539
[7] = test system: EKVX
[8] = test system: UO-31
[9] = test system: NCI-H23
[10] = test system: OVCAR-5
[11] = test system: SF-295
[12] = test system: SN12C
[13] = test system: HCT-116
[14] = test system: UACC-257
[15] = test system: MOLT-4
[16] = test system: CCRF-CEM
[17] = test system: K562

Measured: GI50

CC(C)=CC(=O)CC(=O)C(=O)NCCNC(=O)C(=O)CC(=O)C=C(C)C
inactive: [1] > 50 µM | [2] > 50 µM | [3] > 50 µM | [4] > 50 µM | [5] > 50 µM | [6] > 50 µM | [7] > 50 µM | [8] > 50 µM | [9] > 50 µM | [10] > 50 µM | [11] > 50 µM | [12] > 50 µM | [13] > 50 µM | [14] > 50 µM

CCOC(=O)N(c1ccccc1)c1cc(=O)n2ccccc2n1
inactive: [1] > 100 µM | [2] > 100 µM | [3] > 100 µM | [15] > 100 µM | [5] > 100 µM | [6] > 100 µM | [7] > 100 µM | [8] > 100 µM | [9] > 100 µM | [10] > 100 µM | [16] > 100 µM | [11] > 100 µM | [12] > 100 µM | [17] > 100 µM | [13] > 100 µM | [14] > 100 µM

Cc1ccc(C2=NO[C@@H]3C(=O)N(c4ccc(Cc5ccc(N6C(=O)[C@H]7C(c8ccc(C)cc8)=NO[C@H]7C6=O)cc5)cc4)C(=O)[C@H]23)cc1
inactive: [2] > 100 µM | [3] > 100 µM | [4] > 100 µM | [15] > 10 µM | [5] > 100 µM | [6] > 100 µM | [7] > 100 µM | [8] > 100 µM | [9] > 100 µM | [10] > 100 µM | [16] > 100 µM | [11] > 100 µM | [12] > 100 µM | [17] > 100 µM | [14] 38.7 µM

Cc1ccccc1Cn1nc2ccccc2cc1=O
inactive: [1] > 100 µM | [2] > 100 µM | [3] > 100 µM | [4] > 100 µM | [5] > 100 µM | [6] > 100 µM | [7] > 100 µM | [8] > 100 µM | [9] > 100 µM | [10] > 100 µM | [16] > 100 µM | [11] > 100 µM | [12] > 100 µM | [17] > 100 µM | [13] > 100 µM | [14] > 100 µM

C/C(=N\NC(N)=S)c1ccc(C)cc1C
inactive: [2] > 100 µM | [3] > 100 µM | [4] > 100 µM | [15] 41.8 µM | [5] > 100 µM | [6] > 100 µM | [7] 8.41 µM | [8] 82.6 µM | [9] > 100 µM | [10] 27 µM | [16] > 100 µM | [11] > 100 µM | [12] > 100 µM | [17] 81.5 µM | [13] > 100 µM | [14] 38.4 µM

Nc1ccc2n[se]nc2c1
inactive: [1] > 100 µM | [2] > 100 µM | [3] > 100 µM | [4] > 100 µM | [15] > 100 µM | [5] > 100 µM | [6] > 100 µM | [7] > 100 µM | [8] > 100 µM | [9] > 100 µM | [10] > 100 µM | [16] > 100 µM | [11] > 100 µM | [12] > 100 µM | [17] > 100 µM | [13] > 100 µM | [14] > 100 µM

OCCSCC/C(=N\N=C(/CCSCCO)c1ccccc1)c1ccccc1
inactive: [1] > 100 µM | [2] > 100 µM | [3] > 100 µM | [4] > 100 µM | [15] 77.4 µM | [5] > 100 µM | [6] > 100 µM | [7] > 100 µM | [8] 91.4 µM | [9] > 100 µM | [10] > 100 µM | [16] 44.9 µM | [11] 34.4 µM | [12] > 100 µM | [17] 29.9 µM | [14] > 100 µM

CC(C)C(=O)N[C@@H](C)C(=O)N(Cc1ccc2ccccc2c1)N=O
inactive: [1] > 100 µM | [2] 72.4 µM | [3] > 100 µM | [4] 84.1 µM | [15] 39.4 µM | [5] 55.5 µM | [6] > 100 µM | [7] > 100 µM | [8] 30 µM | [10] 48.8 µM | [16] 61.4 µM | [11] 48.6 µM | [12] > 100 µM | [17] 36.1 µM | [13] 68.9 µM | [14] > 100 µM

COC1[C@H](NC(=O)OC(C)(C)C)C(=O)N1Cc1ccccc1 (stereo partly drawn)
inactive: [1] > 100 µM | [2] > 100 µM | [3] > 100 µM | [4] > 100 µM | [15] > 100 µM | [5] > 100 µM | [6] > 100 µM | [7] > 100 µM | [8] > 100 µM | [9] > 100 µM | [10] > 100 µM | [16] > 100 µM | [11] > 100 µM | [12] > 100 µM | [17] > 100 µM | [13] > 100 µM | [14] > 100 µM
